# Measured values published in ChEMBL document CHEMBL3758169, “4-Aminoindazolyl-dihydrofuro[3,4-d]pyrimidines as non-covalent inhibitors of mutant epidermal growth factor receptor tyrosine kinase” (Bioorg Med Chem Lett, 2016).
# Key:
# [1] = biological target: MAP kinase-activated protein kinase 2 (Homo sapiens) (UniProt P49137); assay: Inhibition of MAPKAPK2 (unknown origin) at 100 nM
# [2] = biological target: Dual specificity mitogen-activated protein kinase kinase 1 (Homo sapiens) (UniProt Q02750); assay: Inhibition of MEK1 (unknown origin) at 100 nM
# [3] = biological target: Hepatocyte growth factor receptor (Homo sapiens) (UniProt P08581); assay: Inhibition of MET (unknown origin) at 100 nM
# [4] = biological target: Serine/threonine-protein kinase Nek1 (Homo sapiens) (UniProt Q96PY6); assay: Inhibition of NEK1 (unknown origin) at 100 nM
# [5] = organism: Homo sapiens; assay: Inhibition of PKA (unknown origin) at 100 nM
# [6] = organism: Homo sapiens; assay: Inhibition of PKCbeta1 (unknown origin) at 100 nM
# [7] = biological target: 5'-AMP-activated protein kinase catalytic subunit alpha-2 (Homo sapiens) (UniProt P54646); assay: Inhibition of PRKAA2 (unknown origin) at 100 nM
# [8] = test system: RAF proto-oncogene serine/threonine-protein kinase (Homo sapiens), P04049 [Y340D,Y341D]; assay: Inhibition of RAF1 Y340D/Y341D double mutant (unknown origin) at 100 nM
# [9] = biological target: Rho-associated protein kinase 1 (Homo sapiens) (UniProt Q13464); assay: Inhibition of ROCK1 (unknown origin) at 100 nM
# [10] = biological target: SRSF protein kinase 2 (Homo sapiens) (UniProt P78362); assay: Inhibition of SRPK2 (unknown origin) at 100 nM
# [11] = biological target: TAK1/TAB1 (Homo sapiens) (UniProt Q15750+O43318); assay: Inhibition of TAK1-TAB1 (unknown origin) at 100 nM; format: protein-complex assay
# [12] = biological target: TGF-beta receptor type-1 (Homo sapiens) (UniProt P36897); assay: Inhibition of TGFBR1 (unknown origin) at 100 nM
# [13] = biological target: Angiopoietin-1 receptor (Homo sapiens) (UniProt Q02763); assay: Inhibition of TIE2 (unknown origin) at 100 nM
# [14] = biological target: High affinity nerve growth factor receptor (Homo sapiens) (UniProt P04629); assay: Inhibition of TRKA (unknown origin) at 100 nM
# [15] = biological target: Mitogen-activated protein kinase 14 (Homo sapiens) (UniProt Q16539); assay: Inhibition of p38alpha (unknown origin) by direct binding assay at 100 nM
# [16] = Apparent permeability from the apical to basolateral side in MDCK cells; format: ADME, cell-based, Canis lupus familiaris; conditions: dog
# [17] = Volume of distribution at steady state in rat; format: ADME, organism-based; conditions: in vivo, read-out: Vdss
# [18] = biological target: RAC-alpha serine/threonine-protein kinase (Homo sapiens) (UniProt P31749); assay: Inhibition of AKT1 (unknown origin) at 100 nM
# [19] = biological target: Tyrosine-protein kinase BTK (Homo sapiens) (UniProt Q06187); assay: Inhibition of BTK (unknown origin) at 100 nM
# [20] = biological target: Cyclin-dependent kinase 5/CDK5 activator 1 (Homo sapiens) (UniProt Q00535+Q15078); assay: Inhibition of CDK5/p25 (unknown origin) at 100 nM; format: protein-complex assay
# [21] = biological target: CDK8/Cyclin C (Homo sapiens) (UniProt P49336+P24863); assay: Inhibition of CDK8/cyclinC (unknown origin) at 100 nM; format: protein-complex assay
# [22] = test system: Epidermal growth factor receptor (Homo sapiens), P00533 [L858R,T790M]; assay: Inhibition of EGFR T790M/L858R double mutant (unknown origin) at 100 nM; format: protein assay
# [23] = biological target: Receptor tyrosine-protein kinase erbB-2 (Homo sapiens) (UniProt P04626); assay: Inhibition of ERBB2 (unknown origin) at 100 nM
# [24] = biological target: Fibroblast growth factor receptor 1 (Homo sapiens) (UniProt P11362); assay: Inhibition of FGFR1 (unknown origin) at 100 nM
# [25] = biological target: Fibroblast growth factor receptor 4 (Homo sapiens) (UniProt P22455); assay: Inhibition of FGFR4 (unknown origin) at 100 nM
# [26] = biological target: Tyrosine-protein kinase Fyn (Homo sapiens) (UniProt P06241); assay: Inhibition of FYN (unknown origin) at 100 nM
# [27] = biological target: Glycogen synthase kinase-3 beta (Homo sapiens) (UniProt P49841); assay: Inhibition of GSK3beta (unknown origin) at 100 nM
# [28] = biological target: Inhibitor of nuclear factor kappa-B kinase subunit alpha (Homo sapiens) (UniProt O15111); assay: Inhibition of IKKalpha (unknown origin) at 100 nM
# [29] = biological target: T1, Inhibitor of nuclear factor kappa-B kinase subunit epsilon (Homo sapiens) (UniProt Q14164); assay: Inhibition of IKKepsilon (unknown origin) at 100 nM
# T1 sequence (whole entry): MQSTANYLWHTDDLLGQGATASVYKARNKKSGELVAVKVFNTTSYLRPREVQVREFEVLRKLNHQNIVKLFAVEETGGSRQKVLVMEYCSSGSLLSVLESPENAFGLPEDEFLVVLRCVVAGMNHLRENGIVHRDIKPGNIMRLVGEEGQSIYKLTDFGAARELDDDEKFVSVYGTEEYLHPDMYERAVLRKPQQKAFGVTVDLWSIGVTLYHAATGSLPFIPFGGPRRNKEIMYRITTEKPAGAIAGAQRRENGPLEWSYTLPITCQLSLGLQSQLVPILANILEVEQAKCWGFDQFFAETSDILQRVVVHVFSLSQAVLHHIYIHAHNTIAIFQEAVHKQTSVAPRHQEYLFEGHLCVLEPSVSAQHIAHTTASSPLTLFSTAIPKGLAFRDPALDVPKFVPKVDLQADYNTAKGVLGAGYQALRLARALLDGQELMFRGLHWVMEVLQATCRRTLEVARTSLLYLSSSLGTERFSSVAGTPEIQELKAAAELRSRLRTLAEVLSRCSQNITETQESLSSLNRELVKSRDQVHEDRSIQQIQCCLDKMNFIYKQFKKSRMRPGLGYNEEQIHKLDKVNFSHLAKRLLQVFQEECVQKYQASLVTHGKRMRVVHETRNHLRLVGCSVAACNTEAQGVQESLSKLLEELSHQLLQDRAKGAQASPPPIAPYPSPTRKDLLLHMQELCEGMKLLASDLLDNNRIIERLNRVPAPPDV
# [30] = biological target: Tyrosine-protein kinase ITK/TSK (Homo sapiens) (UniProt Q08881); assay: Inhibition of ITK (unknown origin) at 100 nM
# [31] = biological target: Insulin receptor (Homo sapiens) (UniProt P06213); assay: Inhibition of INSR (unknown origin) at 100 nM
# [32] = biological target: Mitogen-activated protein kinase 10 (Homo sapiens) (UniProt P53779); assay: Inhibition of JNK3 (unknown origin) at 100 nM
# [33] = biological target: Vascular endothelial growth factor receptor 2 (Homo sapiens) (UniProt P35968); assay: Inhibition of KDR (unknown origin) at 100 nM
# [34] = biological target: Mast/stem cell growth factor receptor Kit (Homo sapiens) (UniProt P10721); assay: Inhibition of KIT (unknown origin) at 100 nM
# [35] = biological target: Tyrosine-protein kinase Lyn (Homo sapiens) (UniProt P07948); assay: Inhibition of LYN (unknown origin) at 100 nM
# Chain of Tyrosine-protein kinase Fyn (Homo sapiens) (P06241 2-537 limits assumed): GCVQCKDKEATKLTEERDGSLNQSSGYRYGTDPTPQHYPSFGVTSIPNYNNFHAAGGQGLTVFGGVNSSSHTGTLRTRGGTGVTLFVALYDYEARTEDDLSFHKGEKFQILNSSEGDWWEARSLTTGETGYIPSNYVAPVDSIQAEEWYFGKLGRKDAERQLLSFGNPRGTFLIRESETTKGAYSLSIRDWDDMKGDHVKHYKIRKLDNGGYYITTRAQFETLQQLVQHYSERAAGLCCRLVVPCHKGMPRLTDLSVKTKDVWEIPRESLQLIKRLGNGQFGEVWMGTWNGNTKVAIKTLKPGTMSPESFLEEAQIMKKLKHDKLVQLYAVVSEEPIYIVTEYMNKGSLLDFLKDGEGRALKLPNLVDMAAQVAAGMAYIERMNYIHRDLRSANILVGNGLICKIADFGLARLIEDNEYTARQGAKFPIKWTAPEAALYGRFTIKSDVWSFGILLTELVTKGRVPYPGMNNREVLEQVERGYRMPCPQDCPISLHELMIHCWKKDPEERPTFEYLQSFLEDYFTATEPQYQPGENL
# Chain of Cyclin-dependent kinase 5/CDK5 activator 1 (Homo sapiens) (Q00535 whole entry): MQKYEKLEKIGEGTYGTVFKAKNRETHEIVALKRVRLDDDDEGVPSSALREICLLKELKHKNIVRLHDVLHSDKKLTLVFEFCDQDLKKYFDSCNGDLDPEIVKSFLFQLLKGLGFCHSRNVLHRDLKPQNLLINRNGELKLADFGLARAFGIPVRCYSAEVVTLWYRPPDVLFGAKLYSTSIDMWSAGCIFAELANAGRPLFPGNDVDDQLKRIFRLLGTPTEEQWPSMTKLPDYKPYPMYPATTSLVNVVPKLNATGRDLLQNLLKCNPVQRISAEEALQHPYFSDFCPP
# Chain of Cyclin-dependent kinase 5/CDK5 activator 1 (Homo sapiens) (Q15078 99-307 partner limits assumed): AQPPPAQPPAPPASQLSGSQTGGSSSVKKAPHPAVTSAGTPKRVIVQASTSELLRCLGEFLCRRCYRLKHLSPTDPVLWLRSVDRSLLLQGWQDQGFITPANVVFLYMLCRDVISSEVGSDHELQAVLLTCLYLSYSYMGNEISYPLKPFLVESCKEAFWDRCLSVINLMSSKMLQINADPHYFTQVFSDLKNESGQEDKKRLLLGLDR
# Chain of RAC-alpha serine/threonine-protein kinase (Homo sapiens) (P31749 whole entry): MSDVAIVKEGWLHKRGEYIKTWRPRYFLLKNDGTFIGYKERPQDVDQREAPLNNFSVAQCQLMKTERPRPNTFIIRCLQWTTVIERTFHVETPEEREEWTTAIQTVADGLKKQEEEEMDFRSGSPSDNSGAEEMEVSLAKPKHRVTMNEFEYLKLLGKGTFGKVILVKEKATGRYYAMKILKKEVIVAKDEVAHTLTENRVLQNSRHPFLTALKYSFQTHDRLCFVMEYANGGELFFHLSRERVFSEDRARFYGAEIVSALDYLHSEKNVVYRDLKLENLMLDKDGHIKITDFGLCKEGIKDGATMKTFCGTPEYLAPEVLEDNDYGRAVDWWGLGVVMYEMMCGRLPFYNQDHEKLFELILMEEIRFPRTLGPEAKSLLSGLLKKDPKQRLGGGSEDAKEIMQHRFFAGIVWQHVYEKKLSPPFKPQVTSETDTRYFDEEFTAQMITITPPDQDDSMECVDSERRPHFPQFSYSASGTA
# Chain of Serine/threonine-protein kinase Nek1 (Homo sapiens) (Q96PY6 whole entry): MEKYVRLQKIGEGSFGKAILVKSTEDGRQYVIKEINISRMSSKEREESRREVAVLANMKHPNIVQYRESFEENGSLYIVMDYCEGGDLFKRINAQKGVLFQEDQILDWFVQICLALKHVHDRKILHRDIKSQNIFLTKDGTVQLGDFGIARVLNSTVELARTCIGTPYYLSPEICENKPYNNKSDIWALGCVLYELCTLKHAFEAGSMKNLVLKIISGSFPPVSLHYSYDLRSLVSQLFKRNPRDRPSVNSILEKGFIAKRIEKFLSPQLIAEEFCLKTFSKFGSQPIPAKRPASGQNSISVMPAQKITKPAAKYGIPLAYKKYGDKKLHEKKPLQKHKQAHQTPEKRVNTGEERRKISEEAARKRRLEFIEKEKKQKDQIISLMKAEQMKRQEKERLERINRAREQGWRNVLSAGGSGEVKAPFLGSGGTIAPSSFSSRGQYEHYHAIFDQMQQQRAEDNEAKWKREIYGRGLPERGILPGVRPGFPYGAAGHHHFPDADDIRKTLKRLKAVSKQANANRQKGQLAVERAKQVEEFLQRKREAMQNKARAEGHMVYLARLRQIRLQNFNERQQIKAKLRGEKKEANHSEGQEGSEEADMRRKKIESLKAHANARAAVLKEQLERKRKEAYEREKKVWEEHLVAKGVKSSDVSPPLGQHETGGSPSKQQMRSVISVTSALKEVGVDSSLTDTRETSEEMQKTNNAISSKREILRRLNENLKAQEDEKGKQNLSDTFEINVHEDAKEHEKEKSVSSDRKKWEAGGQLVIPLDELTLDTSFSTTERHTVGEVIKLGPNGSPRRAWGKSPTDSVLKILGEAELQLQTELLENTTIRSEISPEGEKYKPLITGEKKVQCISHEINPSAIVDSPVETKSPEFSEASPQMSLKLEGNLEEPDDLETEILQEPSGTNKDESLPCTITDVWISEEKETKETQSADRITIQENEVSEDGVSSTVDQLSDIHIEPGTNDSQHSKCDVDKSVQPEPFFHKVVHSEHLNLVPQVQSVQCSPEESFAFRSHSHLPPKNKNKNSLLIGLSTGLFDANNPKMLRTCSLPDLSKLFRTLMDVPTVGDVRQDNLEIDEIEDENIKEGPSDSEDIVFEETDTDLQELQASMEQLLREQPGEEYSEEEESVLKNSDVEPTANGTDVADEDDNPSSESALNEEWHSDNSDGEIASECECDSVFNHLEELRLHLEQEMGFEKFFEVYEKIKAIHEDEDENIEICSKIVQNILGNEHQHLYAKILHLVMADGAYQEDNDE
# Chain of Vascular endothelial growth factor receptor 2 (Homo sapiens) (P35968 whole entry): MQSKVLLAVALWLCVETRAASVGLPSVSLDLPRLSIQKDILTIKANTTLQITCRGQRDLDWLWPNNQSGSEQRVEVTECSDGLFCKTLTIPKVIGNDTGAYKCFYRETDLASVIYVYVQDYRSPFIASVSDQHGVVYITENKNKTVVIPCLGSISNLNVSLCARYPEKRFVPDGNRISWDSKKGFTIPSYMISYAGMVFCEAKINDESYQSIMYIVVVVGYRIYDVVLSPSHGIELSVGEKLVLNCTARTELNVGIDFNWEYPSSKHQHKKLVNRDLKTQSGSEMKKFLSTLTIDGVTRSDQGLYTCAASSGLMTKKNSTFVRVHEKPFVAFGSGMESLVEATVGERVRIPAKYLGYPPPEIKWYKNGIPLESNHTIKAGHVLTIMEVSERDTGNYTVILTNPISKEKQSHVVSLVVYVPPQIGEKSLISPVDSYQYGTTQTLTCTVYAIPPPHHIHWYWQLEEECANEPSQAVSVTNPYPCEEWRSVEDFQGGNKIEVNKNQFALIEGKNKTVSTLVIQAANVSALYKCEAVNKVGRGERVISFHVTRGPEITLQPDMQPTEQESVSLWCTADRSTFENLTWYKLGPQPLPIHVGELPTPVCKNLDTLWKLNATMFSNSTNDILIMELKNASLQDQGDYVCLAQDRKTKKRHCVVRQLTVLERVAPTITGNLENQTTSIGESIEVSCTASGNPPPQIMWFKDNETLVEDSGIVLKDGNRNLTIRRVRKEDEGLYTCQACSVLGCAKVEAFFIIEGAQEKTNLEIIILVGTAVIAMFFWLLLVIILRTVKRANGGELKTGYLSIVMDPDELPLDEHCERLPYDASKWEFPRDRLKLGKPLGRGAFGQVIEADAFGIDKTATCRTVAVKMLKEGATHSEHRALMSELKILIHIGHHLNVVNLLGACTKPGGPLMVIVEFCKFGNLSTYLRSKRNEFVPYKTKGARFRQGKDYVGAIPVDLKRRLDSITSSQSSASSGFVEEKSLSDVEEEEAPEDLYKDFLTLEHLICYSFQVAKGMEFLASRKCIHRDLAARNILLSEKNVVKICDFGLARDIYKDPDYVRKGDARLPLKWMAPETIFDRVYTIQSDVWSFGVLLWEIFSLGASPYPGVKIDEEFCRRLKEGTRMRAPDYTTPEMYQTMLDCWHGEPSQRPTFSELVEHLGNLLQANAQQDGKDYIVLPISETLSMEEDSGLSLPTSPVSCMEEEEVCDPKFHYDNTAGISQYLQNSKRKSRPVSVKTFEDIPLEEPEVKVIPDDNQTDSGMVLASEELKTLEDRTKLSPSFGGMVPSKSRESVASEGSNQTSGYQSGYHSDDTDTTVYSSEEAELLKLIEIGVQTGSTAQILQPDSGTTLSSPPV
# Chain of Glycogen synthase kinase-3 beta (Homo sapiens) (P49841 whole entry, looked up): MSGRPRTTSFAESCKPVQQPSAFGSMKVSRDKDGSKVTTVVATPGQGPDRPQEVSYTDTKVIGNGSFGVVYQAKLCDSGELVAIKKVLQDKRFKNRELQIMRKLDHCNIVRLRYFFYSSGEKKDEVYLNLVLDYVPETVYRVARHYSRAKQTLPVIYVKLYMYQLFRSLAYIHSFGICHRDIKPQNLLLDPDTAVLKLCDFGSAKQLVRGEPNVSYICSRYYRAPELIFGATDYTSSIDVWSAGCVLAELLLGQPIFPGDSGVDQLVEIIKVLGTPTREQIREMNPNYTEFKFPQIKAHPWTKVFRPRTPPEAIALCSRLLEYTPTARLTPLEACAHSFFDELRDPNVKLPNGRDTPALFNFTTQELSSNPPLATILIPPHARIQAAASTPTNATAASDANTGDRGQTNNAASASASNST
# Chain of Dual specificity mitogen-activated protein kinase kinase 1 (Homo sapiens) (Q02750 whole entry): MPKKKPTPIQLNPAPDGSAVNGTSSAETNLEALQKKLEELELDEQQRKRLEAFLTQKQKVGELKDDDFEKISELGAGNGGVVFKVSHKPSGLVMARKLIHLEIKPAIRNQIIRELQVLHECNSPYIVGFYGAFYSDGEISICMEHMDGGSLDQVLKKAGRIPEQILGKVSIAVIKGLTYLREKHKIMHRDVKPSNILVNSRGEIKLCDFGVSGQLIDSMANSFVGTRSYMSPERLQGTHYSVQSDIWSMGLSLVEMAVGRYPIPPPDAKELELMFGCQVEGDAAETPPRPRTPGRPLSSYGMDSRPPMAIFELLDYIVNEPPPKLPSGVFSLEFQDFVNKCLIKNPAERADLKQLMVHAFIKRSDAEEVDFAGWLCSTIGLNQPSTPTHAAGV
SMILES,inhibition [1],inhibition [2],inhibition [3],inhibition [4],inhibition [5],inhibition [6],inhibition [8],inhibition [9],inhibition [10],inhibition [11],inhibition [14],inhibition [15],Papp A→B [16],Vd [17],inhibition [18],inhibition [19],inhibition [20],inhibition [21],inhibition [22],inhibition [24],other results
CC1(C)OCc2c(Nc3n[nH]c4ccccc34)nc(-c3cn[nH]c3)nc21,1.9%,2%,7.9%,6.8%,78.8%,35.1%,16.6%,0.8%,-8.1%,8.9%,10.2%,20.6%,6.7 ×10⁻⁶ cm/s,6 L/kg,3.5%,19.8%,0%,7.9%,95.9%,27.7%,inhibition [7]: 10.9%; inhibition [12]: 97.9%; inhibition [13]: -0.1%; inhibition [23]: 57.2%; inhibition [25]: 14.7%; inhibition [26]: 79.6%; inhibition [27]: 41.9%; inhibition [28]: -5.3%; inhibition [29]: -8.7%; inhibition [30]: 4%; inhibition [31]: 5.4%; inhibition [32]: 18.6%; inhibition [33]: 97.2%; inhibition [34]: 13.3%; inhibition [35]: 89.9%
CC1(C)OCc2c(Nc3n[nH]c4c(Cl)cccc34)nc(-c3cn[nH]c3)nc21,2.1%,4.3%,7.7%,-4%,88.7%,33%,25.3%,2.3%,12.6%,3.1%,12.6%,22.4%,9.5 ×10⁻⁶ cm/s,3.6 L/kg,11.1%,17%,7.8%,11.7%,91.5%,85.1%,inhibition [26]: 82%; inhibition [27]: 61%; inhibition [28]: -1.8%; inhibition [29]: 3.2%; inhibition [30]: 2%; inhibition [31]: 2%; inhibition [33]: 99.3%; inhibition [34]: 4.8%; inhibition [35]: 94%
